Tests used:
[1] = Serum stability: loss of copper measured by fluorescence under simulated physiological conditions; format: in vitro ADME, human
Excerpt: An important consideration in the development of a radiopharmaceutical is the stability of the complex ^67 Cu TCPP to the loss of the radioisotope ^67 Cu in vivo.

[2] = Biodistribution in rats after intravenous injection; format: in vivo; conditions: normal rats (no cancer), 1.0×10^-6 gm
Excerpt: (§1) A sterile dose of ^67 CuTCPP (1.0×10^-6 gm) was intravenously injected into the tail vein of rats.

[3] = Biological half-life study; format: in vivo; conditions: rats, intravenous; exponential decay
Excerpt: as §1

malignant sputum cells = assay: Porphyrin uptake in sputum cells evaluated with a fluorescent microscope; format: cell-based, human
Excerpt: Five parameters were investigated for this study: (1) the effect of various sputum processing procedures on the uptake of porphyrin in sputum cells, (2) the comparison of TCPP to three other porphyrins that are known for their uptake by tumors, (3) the time required for optimal uptake of the porphyrin in sputum cells, (4) the uptake of porphyrin in test and control sputum samples, and (5) the verification that TCPP was localizing in malignant sputum cells. In each of these investigations, the uptake of porphyrin in sputum cells was evaluated with a fluorescent microscope. Nonmetallated porphyrin fluoresces at approximately 650 nm. Sputum samples were evaluated for (1) the number of cells in the sputum samples which fluoresced, and (2) the intensity of the porphyrin fluorescence.
Sputum samples require processing in order to produce a single cell suspension of lung cells. Sputum samples from test and control patients were collected and processed with alcohol and carbowax, alcohol only, phosphate-buffered saline (PBS), or left unprocessed. All samples were mixed with a blender for 1 minute following the addition of the processing mixture and then placed into petri dishes containing various porphyrins. […] Cells in the unprocessed sputum samples remained attached to the bottom of the petri dish with only a few cells free of the mucous.
Four porphyrins selected for their known affinity for neoplastic cells were tested for their ability to detect malignant sputum cells. Sputum cells obtained from each of the four processing procedures set forth above were treated with one of hematoporphyrin derivative, HPD, 5,10,15,20-tetrakis(4-carboxyphenyl)porphine, TCPP, 5,10,15,20-tetrakis(4-sulfonatophenyl)porphine, TTPS, or uroporphyrin, URO. In all investigations, the porphyrins were dissolved in tissue culture medium at a concentration of 200 μg/ml. Following the addition of porphyrin, each sample was incubated at 37° C. for a specific length of time.
Following the incubation period, each sputum sample was examined for porphyrin uptake with a fluorescent microscope. The background fluorescence from porphyrin uptake by nonmalignant cells was lower in some measurements.
Each sputum sample was incubated at 37° C. with each of the porphyrins for either 6 or 24 hours and then evaluated for porphyrin uptake with a fluorescent microscope. At the 6 hour incubation period, the cells had begun to localize porphyrin; however, when the sputum cells were washed with PBS, the fluorescence diminished considerably. […] By 24 hours, by contrast, the uptale of porphyrin by sputum cells increased considerably. […] When the sputum cells that had been incubated for 24 hours were washed with PBS, the porphyrin remained attached to the cells. Longer incubation times were not investigated.
When porphyrin uptake in the test and control samples were compared (i.e., the number of sputum cells which fluoresced), the porphyrin uptake in the control samples was considerably lower than the uptake in the test samples. In addition, the fluorescence intensity of the few control cells that did floresce was lower than the fluorescence intensity of the test cells.

[4] = system: neoplastic sputum cells (squamous cell lung carcinoma, oat cell lung carcinoma, lung adenocarcinoma, advanced metastatic lymphoma); assay: Fluorescence of sputum samples from lung cancer patients versus noncancerous patients; format: cell-based, human
Procedure: Studies were conducted using patients having confirmed squamous cell lung carcinoma, oat cell lung carcinoma, lung adenocarcinoma, and advanced metastatic lymphoma (lung metastasis) using procedures identical to those set forth above.

[5] = system: normal human lung epithelial cells; assay: TCPP uptake in normal lung epithelial cells; format: cell-based
[6] = system: human small cell (oat cell) lung carcinoma; assay: TCPP uptake in small cell lung carcinoma cells; format: cell-based
[7] = system: cancers of the lung grown in tissue cultures; assay: TCPP localization in lung cancers grown in tissue culture; format: cell-based
neoplastic sputum cells = assay: TCPP fluorescence in PAP-stained neoplastic sputum cells; format: cell-based, human; conditions: after PAP staining
Excerpt: To assist in the identification of the neoplastic cells, sputum samples which had the greatest TCPP uptake were stained with PAP stain, a stain routinely used by cytologists to identify neoplastic cells. Cells identified as neoplastic using the PAP stain were marked and re-examined for TCPP uptake with a fluorescent microscope.

squamous carcinoma cells = assay: TCPP uptake in squamous carcinoma cells, flow cytometry; format: cell-based; conditions: squamous carcinoma cells grown in culture
[8] = 200 μg/ml, 37° C., four porphyrins compared

O=C([O-])c1ccc(C2=C3C=CC(=N3)C(c3ccc(C(=O)[O-])cc3)=C3C=CC(=N3)C(=c3ccc(=C([O-])[O-])cc3)c3ccc([n-]3)C(c3ccc(C(=O)[O-])cc3)=C3C=CC2=N3)cc1.[67Cu+2].[H+].[H+].[H+].[H+] [^67 CuTCPP]
conversion (loss of copper) ([1]; human serum albumin, EDTA and DTPA, up to 12 days, one percent is the limit of detection): less than one | transcomplexation with other metal ions ([1]; ultraviolet-visible spectroscopy): no detectable transcomplexation with other metal ions | uptake by normal lung tissue [2]: does not appear to take up significant quantities | major organs of localization ([2]; tail vein): liver and kidney | biological half-life [3]: 108 hours

uroporphyrin [reference compound]
porphyrin uptake (malignant sputum cells; [8]): least porphyrin uptake

O=C(O)c1ccc(-c2c3nc(c(-c4ccc(C(=O)O)cc4)c4ccc([nH]4)c(-c4ccc(C(=O)O)cc4)c4nc(c(-c5ccc(C(=O)O)cc5)c5ccc2[nH]5)C=C4)C=C3)cc1 [TCPP, 5,10,15,20-tetrakis(4-carboxyphenyl)porphine]
contrast (brightness) between fluorescing malignant cells and background fluorescence (malignant sputum cells; [8]): greatest contrast (brightness) | number of cells fluorescing (malignant sputum cells; [8]): greatest number of cells fluorescing | porphyrin uptake (malignant sputum cells; [8]): significant porphyrin uptake in the malignant bodies | TCPP uptake by sputum processing procedure (malignant sputum cells; alcohol or alcohol/carbowax processing vs PBS or unprocessed): highest TCPP uptake | difference between the uptake of porphyrin by test and control sputum cells (malignant sputum cells; four porphyrins compared): most dramatic difference | uptake of porphyrin in neoplastic sputum cells ([4]; carbowax and ethanol): greatest uptake of porphyrin in neoplastic sputum cells | number of fluorescent cells times fluorescence intensity, cancer patients vs noncancerous patients ([4]; sputum samples): 3-6 times | TCPP concentration relative to autofluorescence or background ([5]; normal human lung epithelial cells): only slightly above autofluorescence or background levels | TCPP concentration relative to neoplastic cell lines ([5]; vs neoplastic cell lines examined): many times lower concentration | TCPP uptake compared with normal cells ([6]; vs normal cells): considerably higher than uptake in normal cells | TCPP absorption lower than in squamous cell line ([6]; vs squamous cell line): 2-3 times lower | incubation time for TCPP localization ([7]; 24 hours in TCPP): more than adequate to maximize the TCPP localization | effect of fixing the cells prior to TCPP exposure on TCPP uptake ([7]; fixed prior to TCPP exposure): increased the TCPP uptake | effect of paraformaldehyde fixation on TCPP uptake ([7]; paraformaldehyde vs alcohol and carbowax): slightly increase the TCPP uptake | localization in cultured lung cancers ([7]; tissue culture): localizes in cancers of the lung grown in tissue cultures | TCPP fluorescence in neoplastic cells identified by PAP stain (neoplastic sputum cells): seen in every neoplastic cell | detection by flow cytometry (squamous carcinoma cells): can easily be detected using flow cytometry
